Measurements reported in patent US8759579B2, “Cyclobutyl sulfones as notch sparing gamma secretase inhibitors” (Merck Sharp & Dohme Corp., priority 2008, dated 2014).
Read-outs that look alike come from different tables or passages of the source.

Key:
[1] = tested on: Aβ42 peptides generated from SH-SY5Y cells expressing amyloid β protein (SP4CT cells); assay: APP processing AlphaLisa assay, secreted Aβ42; assay type: cell-based; conditions: average of at least >4 replicates, read-out: AB42 IC50 AVG
Method: (§1) APP Processing (Assay Quantitates Secreted Aβ Analytes from Cell Lines):
(§2) The effect of compounds on the abundance of Aβ40 and Aβ42 peptides generated from SH-SY5Y cells expressing amyloid β protein (SP4CT cells) was determined by an AlphaLisa™ assay. Analogous to an ELISA assay, generation of signal in this AlphaLisa™ assay requires “donor” and “acceptor” beads to be brought in close proximity by specific antibody recognition of either Aβ40 or Aβ42 peptides. The assay was accomplished by removing media from compound-treated SP4CT cells to two different microplates, followed by the addition of donor beads conjugated with streptavidin binding a biotinylated anti-amyloid β monoclonal antibody (clone 4G8). Acceptor beads directly conjugated with anti-Aβ40 monoclonal antibody (G210) were added to one microplate and anti-Aβ42 monoclonal antibody (12F4) acceptor beads were added to the other. Abundance of Aβ40 and Aβ42 was directly proportional to the luminescent signal generated following excitation of donor beads by laser light.

[2] = tested on: gamma secretase-dependent cleavage of the Notch protein (NotchΔE) in HeLa cells; assay: Notch processing split-luciferase assay (Notch intracellular domain release); assay type: cell-based; conditions: average of at least >4 replicates, read-out: Notch IC50 AVG
Excerpt: Notch Processing: (Assay Quantitates Notch Intracellular Domain Release in Cell Lines):
A “split-luciferase” assay is used to measure inhibition of gamma secretase-dependent cleavage of the Notch protein. In this assay, HeLa cells were made to express a Notch protein lacking its extracellular domain (NotchΔE) fused to an N-terminal fragment of luciferase. The same cells also expressed a C-terminal fragment of luciferase fused to the immunoglobulin J kappa recombination signal sequence binding protein (RBP). Upon NotchΔE cleavage by gamma secretase, a Notch intracellular domain (NICD)-N terminal luciferase protein is generated which translocates to the nucleus and binds the RBP-C terminal luciferase fusion, bringing two independently nonfunctional halves of luciferase together to form a functional luciferase enzyme. The activity of luciferase in these cells is directly proportional to the amount of gamma secretase-cleaved Notch. Luciferase activity is determined by the standard techniques of luciferin addition to lysed cells and measurement of total luminescence.

[3] = covalent protein binding assay with liver microsomes; assay type: in vitro ADME; conditions: radiolabeled compound incubated with human liver microsomes
Method: MRK-560 and Example 2 were tested in a covalent protein binding assay which is predictive of drug toxicity. The potential of drug candidates to cause covalent binding to proteins is evaluated by incubation of the radiolabeled version of the compound in question with liver microsomes. A semi-automated method based on Brandel Harvester technique is then used to measure the formation of covalent adducts of the test compound to liver proteins binding (Ref. Day et. al, J Pharmacol Toxicol Methods. 52, 278-85, 2005).

[4] = tested on: Aβ40 peptides generated from SH-SY5Y cells expressing amyloid β protein (SP4CT cells); assay: APP processing AlphaLisa assay, secreted Aβ40; assay type: cell-based; conditions: average of at least >4 replicates, read-out: AB40 IC50 AVG
Method: as §1, §2

[5] = biological target: T1, pregnane X receptor (PXR) (Homo sapiens, UniProt O75469); assay: PXR assay (CYP3A4-SEAP transactivation assay, PCSTA); assay type: cell-based; conditions: for EC50: HEP G2 cells
T1 construct: expressed in transfected cells; host or cells: HEP G2
T1 sequence (O75469 1-434): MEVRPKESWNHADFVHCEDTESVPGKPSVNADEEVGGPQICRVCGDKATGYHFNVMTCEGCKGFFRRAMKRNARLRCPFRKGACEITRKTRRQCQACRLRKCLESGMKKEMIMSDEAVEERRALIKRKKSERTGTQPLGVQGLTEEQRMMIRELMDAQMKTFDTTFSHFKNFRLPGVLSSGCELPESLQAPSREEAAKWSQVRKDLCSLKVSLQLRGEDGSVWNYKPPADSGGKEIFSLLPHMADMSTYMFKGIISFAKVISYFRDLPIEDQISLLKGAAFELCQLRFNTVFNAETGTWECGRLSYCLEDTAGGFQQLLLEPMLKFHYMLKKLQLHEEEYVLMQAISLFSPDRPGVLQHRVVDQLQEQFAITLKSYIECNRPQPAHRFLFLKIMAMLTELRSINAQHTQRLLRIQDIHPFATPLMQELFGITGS
T1 sequence (P19793 1-462 partner): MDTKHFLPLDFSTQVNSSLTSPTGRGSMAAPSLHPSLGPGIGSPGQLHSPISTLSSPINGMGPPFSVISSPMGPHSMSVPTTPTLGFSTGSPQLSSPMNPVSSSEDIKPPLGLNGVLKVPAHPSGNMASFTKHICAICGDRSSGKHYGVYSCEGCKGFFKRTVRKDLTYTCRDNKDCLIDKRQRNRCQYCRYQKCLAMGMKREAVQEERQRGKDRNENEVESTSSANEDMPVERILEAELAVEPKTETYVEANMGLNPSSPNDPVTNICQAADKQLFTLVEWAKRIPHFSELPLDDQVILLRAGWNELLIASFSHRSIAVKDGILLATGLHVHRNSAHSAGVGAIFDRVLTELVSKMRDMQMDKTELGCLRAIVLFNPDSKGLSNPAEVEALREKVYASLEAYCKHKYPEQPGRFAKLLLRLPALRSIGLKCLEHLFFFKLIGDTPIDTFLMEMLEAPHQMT
Excerpt: The CYP3A4-SEAP transactivation assay (PCSTA) effectively and rapidly evaluates compounds for their potential to induce cytochrome P450 CYP3A (human CYP3A4 or rat CYP3A1). The reporter construct contains regulatory regions from the CYP3A4 gene positioned just upstream of a secreted alkaline phosphatase (SEAP) gene. The human PXR nuclear receptor has been modified at the 5′-end so that methionine is the initiating amino acid replacing leucine found in the wild-type sequence. HEP G2 cells are transfected with the PXR plasmid (human or rat) and the reporter plasmid. Read-out for the induction of CYP3A4 consists of a SEAP calorimetric assay with para-nitro-phenyl phosphate (pNPP) as the substrate. Five point dose-response curves in duplicate are then generated with each point corresponding to the rate of conversion of pNPP to pNP by SEAP. For the human PCSTA, rifampicin is used as the positive control and 100% induction is based upon the maximum induction produced by rifampicin at 10 μM.

SMILES | IC50 ([1]; Homo sapiens, SH-SY5Y) [nM] | IC50 ([2]; Homo sapiens, HeLa) [nM] | covalent protein binding (human microsomes) [3] [pmol/mg] | IC50 ([4]; Homo sapiens, SH-SY5Y) [nM] | PXR % Activation @ 10 uM [5] [%] | EC50 [5] [nM] | IC50 [1] [nM] | IC50 [2] [nM] | IC50 [4] [nM]
O=S(=O)(N[C@H]1C[C@@](c2cc(F)ccc2F)(S(=O)(=O)c2ccc(Cl)cc2)C1)C(F)(F)F [Example 2, N-[cis-3-[(4-chlorophenyl)sulfonyl]-3-(2,5-difluorophenyl)cyclobutyl]-1,1,1-trifluoromethanesulfonamide] | 38.4 | 3480 | 380 | 42.8 | 55.5 | 3430 | – | – | –
O=S(=O)(NC1CC(c2cc(F)ccc2F)(S(=O)(=O)c2ccc(F)cc2)C1)C(F)(F)F (stereo not drawn) [Example 7, N-{cis-3-(2,5-difluorophenyl)-3-[(4-fluorophenyl)sulfonyl]cyclobutyl}-1,1,1-trifluoromethanesulfonamide] | 57.6 | 3080 | – | 68.4 | 113.2 | 766 | – | – | –
C[C@]1(NS(=O)(=O)C(F)(F)F)C[C@@](c2cc(F)ccc2F)(S(=O)(=O)c2ccc(Cl)cc2)C1 [Example 17, N-[cis-3-[(4-chlorophenyl)sulfonyl]-3-(2,5-difluorophenyl)-1-methylcyclobutyl]-1,1,1-trifluoromethanesulfonamide] | 37 | 5210 | – | 37.3 | 74.6 | 848 | – | – | –
O=S(=O)(N(CCOC1CCCCO1)[C@H]1C[C@@](c2cc(F)ccc2F)(S(=O)(=O)c2ccc(Cl)cc2)C1)C(F)(F)F (stereo partly drawn) [Example 11, N-[cis-3-[(4-chlorophenyl)sulfonyl]-3-(2,5-difluorophenyl)cyclobutyl]-1,1,1-trifluoro-N-[2-(tetrahydro-2-pyran-2-yloxy)ethyl]methanesulfonamide] | 36.9 | 2540 | – | 43.4 | 86.5 | 826 | – | – | –
CC1(NS(=O)(=O)C(F)(F)F)CC(c2cc(F)ccc2F)(S(=O)(=O)c2ccc(C(F)(F)F)cc2)C1 (stereo not drawn) [Example 18, N-(cis-3-(2,5-difluorophenyl)-1-methyl-3-{[4-(trifluoromethyl)phenyl]sulfonyl}cyclobutyl)-1,1,1-trifluoromethanesulfonamide] | 65.4 | 4470 | – | 60.8 | 75.5 | 3090 | – | – | –
N#Cc1ccc(F)cc1[C@]1(S(=O)(=O)c2ccc(Cl)cc2)C[C@@H](NS(=O)(=O)C(F)(F)F)C1 [Example 3, N-[cis-3-[(4-chlorophenyl)sulfonyl]-3-(2-cyano-5-fluorophenyl)cyclobutyl]-1,1,1-trifluoromethanesulfonamide] | 66.1 | 3210 | – | 70.1 | 92.3 | 714 | – | – | –
CN(C1CC(c2cc(F)ccc2F)(S(=O)(=O)c2ccc(Cl)cc2)C1)S(=O)(=O)C(F)(F)F (stereo not shown) [Example 14, N-[3-[(4-chlorophenyl)sulfonyl]-3-(2,5-difluorophenyl)cyclobutyl]-1,1,1-trifluoro-N-methylmethanesulfonamide] | – | – | – | – | – | 829 | 97.1 | 9860 | 89.9
O=S(=O)(NC1CC(c2cc(F)ccc2F)(S(=O)(=O)c2ccc(C(F)(F)F)cc2)C1)C(F)(F)F (stereo not drawn) [Example 5, N-(cis-3-(2,5-difluorophenyl)-3-{[4-(trifluoromethyl)phenyl]sulfonyl}cyclobutyl)-1,1,1-trifluoromethanesulfonamide] | 90.2 | 3810 | – | 100 | 64.4 | 5200 | – | – | –
